Measured values published in US9963434B2, “N-arylmethyl sulfonamide negative modulators of NR2A” (LUC THERAPEUTICS, priority 2013, dated 2018).
Like-named read-outs stand apart in the source and are kept apart here.

Target: NR1/NR2A (Homo sapiens (Human), UniProt Q05586+Q12879)
Test: FDSS Ca2+ influx inhibition assay in HEK293 cells expressing NR1/NR2A
Assay type: cell-based
Conditions: 3 μM glutamate, 3 μM glycine, 1 mM Ca2+
Outline: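 Fluo-8-loaded HEK293 NR1/NR2A cells preincubated 10 min with compound at 10 μM final (0.1% DMSO) in Ca2+/Mg2+-free HBSS with 20 mM HEPES. Stimulated with 3 μM glutamate, 3 μM glycine, 1 mM Ca2+; FDSS recording for 3 min, end/baseline fluorescence ratio compared with MK801.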

[1] = inhibition relative to MK801, read-out: NR2A IC50

NR1/NR2A, sequence (Q12879 23-1464, other chains not shown): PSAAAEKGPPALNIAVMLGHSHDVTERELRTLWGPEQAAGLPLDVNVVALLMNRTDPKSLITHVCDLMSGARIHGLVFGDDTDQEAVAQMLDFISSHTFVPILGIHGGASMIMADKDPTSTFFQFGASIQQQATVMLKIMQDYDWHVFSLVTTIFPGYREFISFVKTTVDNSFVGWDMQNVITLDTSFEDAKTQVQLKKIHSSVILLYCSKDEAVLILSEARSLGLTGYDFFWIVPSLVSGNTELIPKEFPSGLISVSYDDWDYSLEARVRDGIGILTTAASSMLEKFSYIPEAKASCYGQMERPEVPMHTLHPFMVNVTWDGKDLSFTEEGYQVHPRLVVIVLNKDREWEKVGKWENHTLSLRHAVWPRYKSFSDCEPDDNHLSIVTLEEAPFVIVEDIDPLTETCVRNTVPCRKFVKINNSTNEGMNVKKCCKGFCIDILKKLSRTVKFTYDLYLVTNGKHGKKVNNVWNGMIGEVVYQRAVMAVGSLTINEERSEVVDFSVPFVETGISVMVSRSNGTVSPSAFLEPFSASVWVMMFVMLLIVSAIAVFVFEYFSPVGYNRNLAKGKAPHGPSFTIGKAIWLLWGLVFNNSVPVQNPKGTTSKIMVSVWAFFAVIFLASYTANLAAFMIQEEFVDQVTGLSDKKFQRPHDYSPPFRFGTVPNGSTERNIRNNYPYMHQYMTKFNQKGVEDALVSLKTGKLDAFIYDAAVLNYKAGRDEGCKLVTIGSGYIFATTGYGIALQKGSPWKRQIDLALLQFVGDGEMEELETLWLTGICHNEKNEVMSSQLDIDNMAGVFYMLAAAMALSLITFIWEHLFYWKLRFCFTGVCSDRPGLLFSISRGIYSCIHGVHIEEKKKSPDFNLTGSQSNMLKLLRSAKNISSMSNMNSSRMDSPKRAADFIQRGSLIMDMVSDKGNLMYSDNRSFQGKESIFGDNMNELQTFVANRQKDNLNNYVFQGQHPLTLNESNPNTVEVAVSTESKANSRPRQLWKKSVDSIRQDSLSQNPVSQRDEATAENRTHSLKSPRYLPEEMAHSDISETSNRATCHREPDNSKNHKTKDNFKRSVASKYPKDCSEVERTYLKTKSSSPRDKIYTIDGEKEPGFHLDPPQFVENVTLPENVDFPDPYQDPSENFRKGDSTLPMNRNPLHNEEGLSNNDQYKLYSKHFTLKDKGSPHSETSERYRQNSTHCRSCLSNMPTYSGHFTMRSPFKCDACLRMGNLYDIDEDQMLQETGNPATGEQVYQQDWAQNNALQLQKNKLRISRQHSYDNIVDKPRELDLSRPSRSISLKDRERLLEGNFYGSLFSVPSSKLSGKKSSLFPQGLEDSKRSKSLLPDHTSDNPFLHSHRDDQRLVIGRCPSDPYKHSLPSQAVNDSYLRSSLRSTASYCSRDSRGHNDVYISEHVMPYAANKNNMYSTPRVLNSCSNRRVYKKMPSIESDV

IC50 [1] | IC50 (read-out: Binned Activity) | SMILES
10 µM | > 10 µM | Cc1ncc(CNC(=O)c2cnc(CNC(=O)c3cc(Cl)ccc3F)cn2)s1 [5-{[(5-chloro-2-fluorophenyl)formamido]methyl}-N-[(2-methyl-1,3-thiazol-5-yl)methyl]pyrazine-2-carboxamide]
– | 0.1 to 1 µM | Cc1ncc(CNC(=O)c2cnc(CNS(=O)(=O)c3cc(F)cc(F)c3)c(C)n2)s1 [5-(3,5-difluorobenzenesulfon-amidomethyl)-6-methyl-N-[(2-methyl-1,3-thiazol-5-yl)methyl]pyrazine-2-carboxamide]
10 µM | > 10 µM | Cc1ncsc1CNC(=O)c1cnc(CNS(=O)(=O)c2ccc(F)c(Cl)c2)cn1 [5-(3-chloro-4-fluorobenzenesulfon-amidomethyl)-N-[(4-methyl-1,3-thiazol-5-yl)methyl]pyrazine-2-carboxamide]
10 µM | > 10 µM | O=C(NCc1cncs1)c1ccc(CNS(=O)(=O)c2ccc(F)c(Cl)c2)nn1 [6-(3-chloro-4-fluorobenzenesulfon-amidomethyl)-N-(1,3-thiazol-5-ylmethyl)pyridazine-3-carboxamide]
